Assay results as given in patent US12441691B2 (Cytokinetics, Inc., priority 2020, dated 2025).

Test system: rabbit skeletal myofibrils (fast skeletal myofibrils)
Assay: Activation of fast skeletal myofibrils (PUMA assay, AC1.4)
Format: biochemical
Settings: calcium at pCa25, AC1.4 = concentration at which the compound increased the enzymatic activity
How it was run: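 Detergent-washed rabbit psoas myofibrils (~90% fast fibers), calcium set to give 25% of maximal rate (pCa25). ATPase followed by pyruvate kinase/lactate dehydrogenase-coupled NADH oxidation, absorbance at 340 nm. PM12 buffer: 12 mM PIPES, 2 mM MgCl2, 1 mM DTT, pH 6.8.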

Row | SMILES | AC1.4
1 | CC[C@H](C)[C@H]1C(=O)Nc2ccccc2CN1C(=O)Nc1cccnc1CO [Compound 284, (S)-3-((S)-sec-butyl)-N-(2-(hydroxymethyl)pyridin-3-yl)-2-oxo-1,2,3,5-tetrahydro-4H-benzo[e][1,4]diazepine-4-carboxamide] | 0.11 µM
2 | CC[C@H](C)[C@H]1C(=O)Nc2ccccc2CN1C(=O)NCC(N)=O [Compound 204, (S)-N-(2-amino-2-oxoethyl)-3-((S)-sec-butyl)-2-oxo-1,2,3,5-tetrahydro-4H-benzo[e][1,4]diazepine-4-carboxamide] | 3.66 µM
3 | CC[C@H](C)[C@H]1C(=O)Nc2ccccc2CN1C(=O)N1CC(F)(F)C1 [Compound 300, (S)-3-((S)-sec-butyl)-4-(3,3-difluoroazetidine-1-carbonyl)-1,3,4,5-tetrahydro-2H-benzo[e][1,4]diazepin-2-one] | 0.42 µM
4 | CC[C@H](C)[C@H]1C(=O)Nc2cncc(F)c2CN1C(=O)OC [Compound 364, methyl (S)-3-((S)-sec-butyl)-6-fluoro-2-oxo-1,2,3,5-tetrahydro-4H-pyrido[3,4-e][1,4]diazepine-4-carboxylate] | 3.31 µM
5 | CC[C@H](C)[C@H]1C(=O)Nc2cncnc2CN1C(N)=O [Compound 11, (S)-7-((S)-sec-Butyl)-6-oxo-5,6,7,9-tetrahydro-8H-pyrimido[5,4-e][1,4]diazepine-8-carboxamide] | 1.30 µM
6 | CC[C@H](C)[C@H]1C(=O)Nc2ccccc2CN1C(=O)c1cnn(CCO)c1N [Compound 182, (S)-4-(5-amino-1-(2-hydroxyethyl)-1H-pyrazole-4-carbonyl)-3-((S)-sec-butyl)-1,3,4,5-tetrahydro-2H-benzo[e][1,4]diazepin-2-one] | 0.07 µM
7 | CC[C@H](C)[C@H]1C(=O)Nc2ccccc2CN1C(=O)c1ccc2c(c1)NC(=O)C2 [Compound 165, (S)-3-((S)-sec-butyl)-4-(2-oxoindoline-6-carbonyl)-1,3,4,5-tetrahydro-2H-benzo[e][1,4]diazepin-2-one] | 0.14 µM
8 | CC[C@H](C)[C@H]1C(=O)Nc2ccccc2CN1CCC(=O)N(C)C [Compound 313, 3-((S)-3-((S)-sec-butyl)-2-oxo-1,2,3,5-tetrahydro-4H-benzo[e][1,4]diazepin-4-yl)-N,N-dimethylpropanamide] | 1.22 µM
9 | CC[C@H](C)[C@H]1C(=O)Nc2ccccc2CN1C(=O)NC1CCN(CCO)CC1 [Compound 301, (S)-3-((S)-sec-butyl)-N-(1-(2-hydroxyethyl)piperidin-4-yl)-2-oxo-1,2,3,5-tetrahydro-4H-benzo[e][1,4]diazepine-4-carboxamide] | 0.36 µM
10 | CC[C@H](C)[C@H]1C(=O)Nc2ccccc2CN1C(=O)N[C@@H]1CCC(=O)NC1 [Compound 218, (S)-3-((S)-sec-butyl)-2-oxo-N-((R)-6-oxopiperidin-3-yl)-1,2,3,5-tetrahydro-4H-benzo[e][1,4]diazepine-4-carboxamide] | 0.88 µM
11 | CC[C@H](C)[C@H]1C(=O)Nc2ccccc2CN1C(=O)N1CCN(C)CC1 [Compound 230, (S)-3-((S)-sec-butyl)-4-(4-methylpiperazine-1-carbonyl)-1,3,4,5-tetrahydro-2H-benzo[e][1,4]diazepin-2-one] | 1.31 µM
12 | CC[C@H](C)[C@H]1C(=O)Nc2ccccc2CN1C(=O)Nc1nncs1 [Compound 251, (S)-3-((S)-sec-butyl)-2-oxo-N-(1,3,4-thiadiazol-2-yl)-1,2,3,5-tetrahydro-4H-benzo[e][1,4]diazepine-4-carboxamide] | 0.08 µM
13 | CC[C@H](C)[C@H]1C(=O)Nc2ccccc2CN1c1ncon1 [Compound 56, (S)-3-((S)-sec-Butyl)-4-(1,2,4-oxadiazol-3-yl)-1,3,4,5-tetrahydro-2H-benzo[e][1,4]diazepin-2-one] | 0.08 µM
14 | CC[C@H](C)[C@H]1C(=O)Nc2ccccc2CN1C(=O)[C@@H]1CCCO1 [Compound 106, (S)-3-((S)-sec-butyl)-4-((S)-tetrahydrofuran-2-carbonyl)-1,3,4,5-tetrahydro-2H-benzo[e][1,4]diazepin-2-one] | 0.89 µM
15 | CC[C@H](C)[C@H]1C(=O)Nc2ccccc2CN1C(=O)N1CCC(O)CC1 [Compound 134, (S)-3-((S)-sec-butyl)-4-(4-hydroxypiperidine-1-carbonyl)-1,3,4,5-tetrahydro-2H-benzo[e][1,4]diazepin-2-one] | 0.71 µM
16 | CC(C)[C@H]1C(=O)Nc2ccccc2CN1C(=O)c1ccc(C(N)=O)[nH]1 [Compound 329, (S)-5-(3-isopropyl-2-oxo-2,3,4,5-tetrahydro-1H-benzo[e][1,4]diazepine-4-carbonyl)-1H-pyrrole-2-carboxamide] | 0.20 µM
17 | CC[C@H](C)[C@H]1C(=O)Nc2ccccc2CN1C(=O)NCCNC(C)=O [Compound 211, (S)-N-(2-acetamidoethyl)-3-((S)-sec-butyl)-2-oxo-1,2,3,5-tetrahydro-4H-benzo[e][1,4]diazepine-4-carboxamide] | 2.92 µM

Row | SMILES | AC1.4
18 | CC[C@H](C)[C@H]1C(=O)Nc2cc(F)ccc2CN1C(=O)N[C@H]1CCN(C)C1 [Compound 358, (S)-3-((S)-sec-butyl)-8-fluoro-N-((S)-1-methylpyrrolidin-3-yl)-2-oxo-1,2,3,5-tetrahydro-4H-benzo[e][1,4]diazepine-4-carboxamide] | 0.40 µM
19 | CC[C@H](C)[C@H]1C(=O)Nc2ccccc2CN1c1nc(C)cc(=O)[nH]1 [Compound 53, (S)-3-((S)-sec-Butyl)-4-(4-methyl-6-oxo-1,6-dihydropyrimidin-2-yl)-1,3,4,5-tetrahydro-2H-benzo[e][1,4]diazepin-2-one] | 0.10 µM
20 | CC[C@H](C)[C@H]1C(=O)Nc2c(F)cccc2CN1C(=O)NC [Compound 78, (S)-3-((S)-sec-butyl)-9-fluoro-N-methyl-2-oxo-1,2,3,5-tetrahydro-4H-benzo[e][1,4]diazepine-4-carboxamide] | 0.50 µM
21 | CC[C@H](C)[C@H]1C(=O)Nc2ccccc2CN1c1ncccn1 [Compound 114, (S)-3-((S)-sec-butyl)-4-(pyrimidin-2-yl)-1,3,4,5-tetrahydro-2H-benzo[e][1,4]diazepin-2-one] | 0.05 µM
22 | CC[C@H](C)[C@H]1C(=O)Nc2ccccc2CN1CC(=O)NC [Compound 311, 2-((S)-3-((S)-sec-butyl)-2-oxo-1,2,3,4-tetrahydro-4H-benzo[e][1,4]diazepin-4-yl)-N-methylacetamide] | 2.60 µM
23 | CC[C@H](C)[C@H]1C(=O)Nc2cc(F)ccc2CN1C(=O)NC1CCN(C2COC2)CC1 [Compound 360, (S)-3-((S)-sec-butyl)-8-fluoro-N-(1-(oxetan-3-yl)piperidin-4-yl)-2-oxo-1,2,3,5-tetrahydro-4H-benzo[e][1,4]diazepine-4-carboxamide] | 0.37 µM
24 | CC[C@H](C)[C@H]1C(=O)Nc2ccccc2CN1C(=O)[C@H]1CCCN1 [Compound 178, (S)-4-(D-prolyl)-3-((S)-sec-butyl)-1,3,4,5-tetrahydro-2H-benzo[e][1,4]diazepin-2-one] | 3.37 µM
25 | CC[C@H](C)[C@H]1C(=O)Nc2ccccc2CN1C(=O)N(C)CCN(C)C [Compound 133, (S)-3-((S)-sec-butyl)-N-(2-(dimethylamino)ethyl)-N-methyl-2-oxo-1,2,3,5-tetrahydro-4H-benzo[e][1,4]diazepine-4-carboxamide] | 0.48 µM
26 | CC[C@H](C)[C@H]1C(=O)Nc2ccccc2CN1/C(N)=N/C(=O)OC [Compound 22, Methyl ((E)-amino((S)-3-((S)-sec-butyl)-2-oxo-1,2,3,5-tetrahydro-4H-benzo[e][1,4]diazepin-4-yl)methylene)carbamate] | 0.07 µM
27 | CC[C@H](C)[C@H]1C(=O)Nc2cncc(F)c2CN1C(C)=O [Compound 361, (S)-4-acetyl-3-((S)-sec-butyl)-6-fluoro-1,3,4,5-tetrahydro-2H-pyrido[3,4-e][1,4]diazepin-2-one] | 1.62 µM
28 | CC[C@H](C)[C@H]1C(=O)Nc2cncc(F)c2CN1/C(N)=N/C#N [Compound 365, (S,E)-3-((S)-sec-butyl)-N′-cyano-6-fluoro-2-oxo-1,2,3,5-tetrahydro-4H-pyrido[3,4-e][1,4]diazepine-4-carboximidamide] | 0.19 µM
29 | NC(=O)N1Cc2ccccc2NC(=O)[C@@H]1C1CCC1 [Compound 121, (S)-3-cyclobutyl-2-oxo-1,2,3,5-tetrahydro-4H-benzo[e][1,4]diazepine-4-carboxamide] | 4.80 µM
30 | CC(C)[C@H]1C(=O)Nc2ccccc2CN1C(=O)c1cnn(C)c1 [Compound 41, (S)-3-Isopropyl-4-(1-methyl-1H-pyrazole-4-carbonyl)-1,3,4,5-tetrahydro-2H-benzo[e][1,4]diazepin-2-one] | 0.96 µM
31 | CC[C@H](C)[C@H]1C(=O)Nc2ccccc2CN1C(=O)[C@@H]1CC(=O)N(C)C1 [Compound 193, (S)-3-((S)-sec-butyl)-4-((R)-1-methyl-5-oxopyrrolidine-3-carbonyl)-1,3,4,5-tetrahydro-2H-benzo[e][1,4]diazepin-2-one] | 0.72 µM
32 | CC[C@H](C)[C@H]1C(=O)Nc2ccc(F)cc2CN1C(=O)N1CC(C)(O)C1 [Compound 346, (S)-3-((S)-sec-butyl)-7-fluoro-4-(3-hydroxy-3-methylazetidine-1-carbonyl)-1,3,4,5-tetrahydro-2H-benzo[e][1,4]diazepin-2-one] | 1.57 µM
33 | CC[C@H](C)[C@H]1C(=O)Nc2ccccc2CN1C(=O)N1CCC(O)C1 (stereo partly drawn) [Compound 227, (3S)-3-((S)-sec-butyl)-4-(3-hydroxypyrrolidine-1-carbonyl)-1,3,4,5-tetrahydro-2H-benzo[e][1,4]diazepin-2-one] | 2.29 µM
34 | CC[C@H](C)[C@H]1C(=O)Nc2ccccc2CN1C(=O)NC1CCN(C)CC1 [Compound 290, (S)-3-((S)-sec-butyl)-N-(1-methylpiperidin-4-yl)-2-oxo-1,2,3,5-tetrahydro-4H-benzo[e][1,4]diazepine-4-carboxamide] | 0.15 µM
